“And” between values parts separate entries of the source, which are not always exact repeats. Equal values may be shown once. Read-outs that look alike come from different tables or passages of the source.
Assays:
Erysiphe graminis = test: Test on preventive effect against wheat powdery mildew (Test Example 1); type: in vivo
Septoria nodorum = test: Test on preventive effect against wheat glum bloth (Test Example 3); type: in vivo
Protocol: Wheat (cultivar: Norin-61-go) was cultivated in a plastic pot having a diameter of 7.5 cm, and when it reached 1.5-leaf stage, a mixed chemical solution having the respective sample compounds adjusted to prescribed concentrations, was applied by a spray gun in an amount of 10 ml per seedling. After the chemical solution dried, a suspension of conidia of Septoria nodorum was sprayed and inoculated and maintained at 20° C. for 7 days (for the first 3 days maintained under high humidity condition). Thereafter, the area of lesions was investigated, and the diseased area ratio to non-treated section was obtained by the following equation. Diseased area ratio to non-treated section=(a/b)×100
a: Average area of lesions in treated section
b: Average area of lesions in non-treated section
Further, the theoretical value was calculated by a Colby's formula and shown in brackets ( ) in Tables 3-1 to 3-14. Since the diseased area ratio to non-treated section (experimental value) is lower than the theoretical value, the composition of the present invention can be said to have a synergistic effect.

Botrytis cinerea [1] = test: Test on antifungal activity against gray mold pathogen, mycelial growth on agar (Test Example 6); type: cell-based
Protocol: Mycelial growth of Botrytis cinerea preliminarily obtained by cultivation was punched out by a cork borer having a diameter of 4 mm and transplanted on a potato sucrose agar medium containing mixed chemical agents adjusted to prescribed concentrations. The system was left to stand at 25° C. for 3 days for cultivation, whereupon the diameter of mycelial growth was measured. The incidence to non-treated section was obtained in the same manner as the above Test Example 5, and the results are shown in Table 6-1 to 6-3.
Further, the theoretical value was calculated by a Colby's formula and shown in brackets ( ) in Tables 6-1 to 6-3. Since the incidence to non-treated section is lower than the theoretical value, the composition of the present invention can be said to have a synergistic effect.

Botrytis cinerea [2] = test: Test on preventive effect against kidney bean gray mold (Test Example 4); type: in vivo
Protocol: Kidney bean (cultivar: Taisyou Kintoki) was cultivated in a plastic pot having a diameter of 12.0 cm, and when it reached 2.5-leaf stage, a mixed chemical solution having the respective test compounds adjusted to prescribed concentrations, was applied by a spray gun in an amount of 10 ml per seedling. After the chemical solution dried, the leaf was cut out, and a filter paper disk (8 mm in diameter) was placed on the leaf. Then, 120 μl of a suspension of spores of Botrytis cinerea (1.0×10^6 spores/ml) was dropped thereon and inoculated. The system was maintained under a humidity condition at 20° C. for three days, whereupon the area of lesions was investigated, and the diseased area ratio to non-treated section was obtained in the same manner as in Test Example 3. Further, the theoretical value was calculated by a Colby's formula and shown in brackets ( ) in Tables 4-1 to 4-19. Since the diseased area ratio to non-treated section (experimental value) is lower than the theoretical value, the composition of the present invention can be said to have a synergistic effect.

Sphaerotheca fuliginea = type: in vivo
Phyicularia oryzae = type: cell-based; settings: single use at 0.5 ppm
Botrytis cinerea [3] = test: Test on antifungal activity against gray mold pathogen, intersecting filter papers (Test Examples 7 and 8); type: cell-based; settings: for distance from both ends of the filter paper to mycelial growth area of Botrytis cinerea (average): single use section, 30 ppm

## Cc1cc(OC(C)C)ccc1C(=O)C(C)(C)NC(=O)c1sccc1C [Compound No. 5, N-[[2′-methyl-4′-(2-propyloxy)-1,1-dimethyl]phenacyl]-3-methyl-2-thiophenecarboxamide]
Erysiphe graminis; Compound (a) alone 250 ppm
  diseased area ratio to non-treated section: 0.6
Septoria nodorum; single use at 12.5 ppm
  diseased area ratio to non-treated section (experimental value): 30.0
Septoria nodorum; single use at 50 ppm
  diseased area ratio to non-treated section (experimental value): 20.0
Botrytis cinerea [1]; single use at 5 ppm
  incidence to non-treated section (mycelial growth diameter): 32.3
Botrytis cinerea [2]; single use at 4 ppm
  diseased area ratio to non-treated section (experimental value): 74.0 and 83.5
Botrytis cinerea [2]; single use at 8 ppm
  diseased area ratio to non-treated section (experimental value): 74.7

## Cc1ccsc1C(=O)NC(C)(C)C(=O)c1ccc(OC(C)C)cc1 [Compound No. 8, N-[[4′-(2-propyloxy)-1,1-dimethyl]phenacyl]-3-methyl-2-thiophenecarboxamide]
Sphaerotheca fuliginea; single use at 1 ppm
  diseased area ratio to non-treated section (experimental value): 35.0
Sphaerotheca fuliginea; single use at 2 ppm
  diseased area ratio to non-treated section (experimental value): 10.0
Septoria nodorum; single use at 12.5 ppm
  diseased area ratio to non-treated section (experimental value): 35.0
Septoria nodorum; single use at 50 ppm
  diseased area ratio to non-treated section (experimental value): 20.0

## CC1CCN(c2c(-c3c(F)cc(F)cc3F)c(Cl)nc3ncnn23)CC1 [Compound α, 5-chloro-7-(4-methylpiperidin-1-yl)-6-(2,4,6-trifluorophenyl)-[1,2,4]triazolo[1,5-a]pyrimidine, reference compound]
Botrytis cinerea [2]; single use at 4 ppm
  diseased area ratio to non-treated section (experimental value): 43.0
Botrytis cinerea [2]; single use at 8 ppm
  diseased area ratio to non-treated section (experimental value): 15.0

## COc1ccccc1N1CCSC1=C(C#N)Sc1cc(C(F)(F)F)ccc1F [Compound γ, 2-(2-fluoro-5-(trifluoromethyl)phenylthio)-2-(3-(2-methoxyphenyl)thiazolidin-2-yliden)acetonitrile, reference compound]
Botrytis cinerea [2]; single use at 1 ppm
  diseased area ratio to non-treated section (experimental value): 88.6
Botrytis cinerea [2]; single use at 10 ppm
  diseased area ratio to non-treated section (experimental value): 88.6

## Cc1cc(OC(C)C)ccc1C(=O)C(C)(C)NC(=O)c1sccc1C [No. 5]
Erysiphe graminis; Compound No.x alone 16 ppm
  diseased area ratio to non-treated section: 25.0
Erysiphe graminis; Compound No.x alone 31 ppm
  diseased area ratio to non-treated section: 17.5 and 12.5
Erysiphe graminis; Compound No.x alone 63 ppm
  diseased area ratio to non-treated section: 10.0
Erysiphe graminis; Compound No.x alone 125 ppm
  diseased area ratio to non-treated section: 2.5
Sphaerotheca fuliginea; Compound No.x alone 8 ppm
  diseased area ratio to non-treated section: 2.5

## Cc1ccsc1C(=O)NC(C)(C)C(=O)c1ccc(OC(C)C)cc1 [No. 8]
Erysiphe graminis; Compound No.x alone 63 ppm
  diseased area ratio to non-treated section: 60.0
Erysiphe graminis; Compound No.x alone 125 ppm
  diseased area ratio to non-treated section: 55.0 and 30.0
Sphaerotheca fuliginea; Compound No.x alone 1 ppm
  diseased area ratio to non-treated section: 81.3
Sphaerotheca fuliginea; Compound No.x alone 2 ppm
  diseased area ratio to non-treated section: 45.0 and 75.0

## CCCC(C)Oc1ccc(C(=O)C(C)(C)NC(=O)c2ncccc2C(F)(F)F)cc1 (centres unmarked) [No. 11]
Erysiphe graminis; Compound No.x alone 63 ppm
  diseased area ratio to non-treated section: 45.0 and 60.0
Erysiphe graminis; Compound No.x alone 125 ppm
  diseased area ratio to non-treated section: 35.0
Erysiphe graminis; Compound No.x alone 250 ppm
  diseased area ratio to non-treated section: 22.5 and 12.5
Sphaerotheca fuliginea; Compound No.x alone 8 ppm
  diseased area ratio to non-treated section: 4.0

## O=C1C2CC=CCC2C(=O)N1SC(Cl)(Cl)Cl (centres unmarked) [captan]
Botrytis cinerea [1]; single use at 1 ppm
  incidence to non-treated section (mycelial growth diameter): 94.4

## O=C(Cc1ccccc1)N/C(=N\OCC1CC1)c1c(C(F)(F)F)ccc(F)c1F [cyflufenamid]
Botrytis cinerea [2]; single use at 10 ppm
  diseased area ratio to non-treated section (experimental value): 87.3
Botrytis cinerea [2]; single use at 100 ppm
  diseased area ratio to non-treated section (experimental value): 82.3

## Cc1cc(C2CC2)nc(Nc2ccccc2)n1 [cyprodinil]
Erysiphe graminis; fungicide (b) alone 31 ppm
  diseased area ratio to non-treated section: 75.0
Erysiphe graminis; fungicide (b) alone 63 ppm
  diseased area ratio to non-treated section: 70.0
Erysiphe graminis; fungicide (b) alone 125 ppm
  diseased area ratio to non-treated section: 32.5

## CNC(=O)/C(=N/OC)c1ccccc1COc1cc(C)ccc1C [dimoxystrobin]
Erysiphe graminis; fungicide (b) alone 5 ppm
  diseased area ratio to non-treated section: 5.0

## CC(Cc1ccc(C(C)(C)C)cc1)CN1CCCCC1 (centres unmarked) [fenpropidin]
Erysiphe graminis; fungicide (b) alone 12.5 ppm
  diseased area ratio to non-treated section: 27.5
Erysiphe graminis; fungicide (b) alone 25 ppm
  diseased area ratio to non-treated section: 2.0
Erysiphe graminis; fungicide (b) alone 50 ppm
  diseased area ratio to non-treated section: 1.0

## CC(Cc1ccc(C(C)(C)C)cc1)CN1C[C@@H](C)O[C@@H](C)C1 (some centres unmarked) [fenpropimorph]
Erysiphe graminis; fungicide (b) alone 12.5 ppm
  diseased area ratio to non-treated section: 36.4
Erysiphe graminis; fungicide (b) alone 25 ppm
  diseased area ratio to non-treated section: 9.1

## C/C(=N/Nc1nc(C)cc(C)n1)c1ccccc1C [ferimzone]
Phyicularia oryzae
  incidence to non-treated section (mycelial growth diameter): 10.9

## O=[N+]([O-])c1cc(C(F)(F)F)c(Cl)c([N+](=O)[O-])c1Nc1ncc(C(F)(F)F)cc1Cl [fluazinam, reference compound]
Sphaerotheca fuliginea; partner fungicide alone 125 ppm
  diseased area ratio to non-treated section: 17.5
Sphaerotheca fuliginea; partner fungicide alone 250 ppm
  diseased area ratio to non-treated section: 4.0
Sphaerotheca fuliginea; partner fungicide alone 500 ppm
  diseased area ratio to non-treated section: 2.0
Botrytis cinerea [3]
  distance from both ends of the filter paper to mycelial growth area of Botrytis cinerea (average): 5 mm
Botrytis cinerea [3]; single use, filter paper immersed in 30 ppm solution, 20° C. for 4 days
  controlling effect (contact of filter paper with mycelial growth area of Botrytis cinerea): a certain controlling effect

## N#Cc1c[nH]cc1-c1cccc2c1OC(F)(F)O2 [fludioxonil]
Erysiphe graminis; fungicide (b) alone 125 ppm
  diseased area ratio to non-treated section: 95.0
Erysiphe graminis; fungicide (b) alone 250 ppm
  diseased area ratio to non-treated section: 90.0
Erysiphe graminis; fungicide (b) alone 500 ppm
  diseased area ratio to non-treated section: 85.0

## CC(C)Oc1cccc(NC(=O)c2ccccc2C(F)(F)F)c1 [flutolanil]
Erysiphe graminis; fungicide (b) alone 500 ppm
  diseased area ratio to non-treated section: 7.5
Erysiphe graminis; fungicide (b) alone 1000 ppm
  diseased area ratio to non-treated section: 12.5

## CCO[PH](=O)O [fosetyl-Al]
Erysiphe graminis; fungicide (b) alone 500 ppm
  diseased area ratio to non-treated section: 97.5
Erysiphe graminis; fungicide (b) alone 1000 ppm
  diseased area ratio to non-treated section: 97.5

## C[C@H]1O[C@H](O[C@H]2[C@H](O)[C@@H](O)[C@@H](O)[C@H](O)[C@@H]2O)[C@@H](N)C[C@@H]1NC(=N)C(=O)O [kasugamycin]
Erysiphe graminis; fungicide (b) alone 50 ppm
  diseased area ratio to non-treated section: 97.5
Erysiphe graminis; fungicide (b) alone 500 ppm
  diseased area ratio to non-treated section: 55.0

## CO/N=C(/C(=O)OC)c1ccccc1COc1ccccc1C [kresoxim-methyl]
Erysiphe graminis; fungicide (b) alone 12.5 ppm
  diseased area ratio to non-treated section: 4.9
Erysiphe graminis; fungicide (b) alone 25 ppm
  diseased area ratio to non-treated section: 1.8

## CC1(C)CCC(Cc2ccc(Cl)cc2)C1(O)Cn1cncn1 (centres unmarked) [metconazole]
Erysiphe graminis; fungicide (b) alone 0.0075 ppm
  diseased area ratio to non-treated section: 95.0
Erysiphe graminis; fungicide (b) alone 0.03 ppm
  diseased area ratio to non-treated section: 55.0

## COc1cc(C)c(C(=O)c2c(OC)ccc(Br)c2C)c(OC)c1OC [metrafenone, 3′-bromo-2,3,4,6′-tetramethoxy-2′,6-dimethylbenzophenone]
Erysiphe graminis; fungicide (b) alone 0.0075 ppm
  diseased area ratio to non-treated section: 100
Erysiphe graminis; fungicide (b) alone 0.03 ppm
  diseased area ratio to non-treated section: 35.0

## CCCCC(C#N)(Cn1cncn1)c1ccc(Cl)cc1 (centres unmarked) [myclobutanil]
Septoria nodorum; single use at 5 ppm
  diseased area ratio to non-treated section (experimental value): 60.0
Septoria nodorum; single use at 20 ppm
  diseased area ratio to non-treated section (experimental value): 35.0

## CC1(C)COC(C)(CCCc2ccc(Cl)cc2)N1C(=O)n1ccnc1.CC1(C)COC(C)(CCCc2ccc(Cl)cc2)N1C(=O)n1ccnc1.O=C(O)/C=C/C(=O)O (centres unmarked) [oxpoconazole fumarate]
Botrytis cinerea [3]
  distance from both ends of the filter paper to mycelial growth area of Botrytis cinerea (average): 7.5 mm

## CCCN(CCOc1c(Cl)cc(Cl)cc1Cl)C(=O)n1ccnc1 [prochloraz]
Septoria nodorum; single use at 5 ppm
  diseased area ratio to non-treated section (experimental value): 40.0
Septoria nodorum; single use at 20 ppm
  diseased area ratio to non-treated section (experimental value): 15.0

## CCCOc1nc2ccc(I)cc2c(=O)n1CCC [proquinazid]
Botrytis cinerea [2]; single use at 10 ppm
  diseased area ratio to non-treated section (experimental value): 96.2
Botrytis cinerea [2]; single use at 100 ppm
  diseased area ratio to non-treated section (experimental value): 92.4

## OC(Cc1ccccc1Cl)(Cn1nc[nH]c1=S)C1(Cl)CC1 (centres unmarked) [prothioconazole]
Septoria nodorum; single use at 10 ppm
  diseased area ratio to non-treated section (experimental value): 30.0

## COC(=O)NCc1cc(/C(C)=N/OCc2cccc(C)n2)ccc1Cl [pyribencarb]
Botrytis cinerea [2]; single use at 4 ppm
  diseased area ratio to non-treated section (experimental value): 70.0
Botrytis cinerea [2]; single use at 8 ppm
  diseased area ratio to non-treated section (experimental value): 65.0

## Fc1ccc(Oc2ccnc3cc(Cl)cc(Cl)c23)cc1 [quinoxyfen]
Erysiphe graminis; fungicide (b) alone 0.06 ppm
  diseased area ratio to non-treated section: 80.0
Erysiphe graminis; fungicide (b) alone 0.125 ppm
  diseased area ratio to non-treated section: 77.5

## CCCN(CC)CC1COC2(CCC(C(C)(C)C)CC2)O1 (centres unmarked) [spiroxamine]
Erysiphe graminis; fungicide (b) alone 12.5 ppm
  diseased area ratio to non-treated section: 97.0
Erysiphe graminis; fungicide (b) alone 25 ppm
  diseased area ratio to non-treated section: 15.2
Erysiphe graminis; fungicide (b) alone 50 ppm
  diseased area ratio to non-treated section: 6.1

## S1SSSSSSS1 [sulfur]
Erysiphe graminis; fungicide (b) alone 50 ppm
  diseased area ratio to non-treated section: 97.5
Erysiphe graminis; fungicide (b) alone 500 ppm
  diseased area ratio to non-treated section: 40.0

## CC(C)(C)C(O)(CCc1ccc(Cl)cc1)Cn1cncn1 (centres unmarked) [tebuconazole]
Erysiphe graminis; fungicide (b) alone 0.5 ppm
  diseased area ratio to non-treated section: 10.0
Erysiphe graminis; fungicide (b) alone 1 ppm
  diseased area ratio to non-treated section: 5.0

## FC(F)C(F)(F)OCC(Cn1cncn1)c1ccc(Cl)cc1Cl (centres unmarked) [tetraconazole]
Erysiphe graminis; fungicide (b) alone 0.125 ppm
  diseased area ratio to non-treated section: 60.0
Erysiphe graminis; fungicide (b) alone 0.5 ppm
  diseased area ratio to non-treated section: 52.5

## Cc1cccc2sc3nncn3c12 [tricyclazole]
Erysiphe graminis; fungicide (b) alone 50 ppm
  diseased area ratio to non-treated section: 22.5
Erysiphe graminis; fungicide (b) alone 500 ppm
  diseased area ratio to non-treated section: 50.0
